# pEC50: −log10 of the molar value.
# What was measured:
# [1] = target: T1, FSHR (Homo sapiens, UniProt P23945); assay: EC50 of cyclic AMP production in CHO FSHR cells + EC20 FSH (Assay A); assay type: cell-based; conditions: cyclic AMP production in CHO FSHR cells + EC20 FSH (0.265 pM), HTRF
# T1 construct: expressed in transfected cells; host or cells: CHO (Cho-FSHR-LUC-1-1-43)
# T1 sequence (P23945 18-695): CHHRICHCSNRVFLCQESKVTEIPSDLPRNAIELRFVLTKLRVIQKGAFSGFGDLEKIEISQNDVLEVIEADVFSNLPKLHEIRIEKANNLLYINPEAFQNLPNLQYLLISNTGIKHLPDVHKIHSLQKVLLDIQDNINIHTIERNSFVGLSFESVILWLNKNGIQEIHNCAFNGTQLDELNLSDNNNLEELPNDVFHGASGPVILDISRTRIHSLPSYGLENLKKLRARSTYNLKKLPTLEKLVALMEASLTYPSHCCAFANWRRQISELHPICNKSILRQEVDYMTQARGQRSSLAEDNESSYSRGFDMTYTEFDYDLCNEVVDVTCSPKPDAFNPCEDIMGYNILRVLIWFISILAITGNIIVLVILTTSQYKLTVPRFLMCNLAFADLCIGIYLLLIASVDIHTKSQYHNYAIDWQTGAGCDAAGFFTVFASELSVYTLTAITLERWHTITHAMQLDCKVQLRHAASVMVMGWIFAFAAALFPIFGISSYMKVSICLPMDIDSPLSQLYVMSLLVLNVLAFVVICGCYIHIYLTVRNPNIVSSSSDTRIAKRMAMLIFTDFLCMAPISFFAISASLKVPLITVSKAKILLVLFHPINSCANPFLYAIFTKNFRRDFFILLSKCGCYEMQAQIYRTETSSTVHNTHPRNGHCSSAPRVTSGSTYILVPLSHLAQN
# Protocol: Example 24. EC50 of cyclic AMP production in CHO FSHR cells+EC20 FSH (Assay A)
# 2500 Cho-FSHR-LUC-1-1-43 cells were plated per well in 5 al of phenol red free DMEM/F12+1% FBS. Cells were plated in 384 well, solid white low volume plates (Greiner 784075) by Multidrop. Cells were assayed by adding 100 al of 2×EC20 FSH/IBMX in DMEM/F12+0.1% BSA) by Multidrop to 2 al of test compound stamped in 384 well plates (compounds are diluted 1:50). The final FSH concentration was 0.265 pM, and the final IBMX concentration was 200 μM. The compound plate map was as follows: Column 1: 2 μl of DMSO; Column 2: 2 μl of DMSO; Columns 3-12 and 13-24: 2 μl of test compound, diluted 1:4 in 100% DMSO, or 2 μl of FSH, diluted 1:4 in DMEM/F12+0.1% BSA. The starting concentration for FSH was 50 nM (final concentration was 0.5 nM). Furthermore, Column 23 contained 2 μl of EC100 FSH reference (100×) (diluted in DMEM/F12+0.1% BSA) at a final concentration of 0.5 nM, and Column 24 contained 2 μl of 1 mM AS707664/2 reference compound 2. 5 μl of compound+EC20 FSH mixture were transferred to cell plates (1:2 dilution into 5 μl of cell media) The plates were incubated at 37° C. for 1 h. 10 μl of mixed HTRF (CisBio #62AM4PEC) reagents were added per well and incubated at room temperature for 1 h. The plates were read on Envision using the cAMP HTRF—low volume 384 well protocol. The readout was the calculated fluorescence ratio (665 nm/620 nm). Values given in percent (%) indicate the percental effect (response) at a certain concentration of agonist relative to the maximum response of the FSH standard.
# [2] = target: T2, follicle-stimulating hormone (FSH) receptor (Rattus norvegicus, UniProt P20395); assay: Rat granulosa EC50 FSH (Assay B); assay type: cell-based
# T2 construct: endogenous in cells; host or cells: rat granulosa cells
# T2 sequence (P20395 18-692): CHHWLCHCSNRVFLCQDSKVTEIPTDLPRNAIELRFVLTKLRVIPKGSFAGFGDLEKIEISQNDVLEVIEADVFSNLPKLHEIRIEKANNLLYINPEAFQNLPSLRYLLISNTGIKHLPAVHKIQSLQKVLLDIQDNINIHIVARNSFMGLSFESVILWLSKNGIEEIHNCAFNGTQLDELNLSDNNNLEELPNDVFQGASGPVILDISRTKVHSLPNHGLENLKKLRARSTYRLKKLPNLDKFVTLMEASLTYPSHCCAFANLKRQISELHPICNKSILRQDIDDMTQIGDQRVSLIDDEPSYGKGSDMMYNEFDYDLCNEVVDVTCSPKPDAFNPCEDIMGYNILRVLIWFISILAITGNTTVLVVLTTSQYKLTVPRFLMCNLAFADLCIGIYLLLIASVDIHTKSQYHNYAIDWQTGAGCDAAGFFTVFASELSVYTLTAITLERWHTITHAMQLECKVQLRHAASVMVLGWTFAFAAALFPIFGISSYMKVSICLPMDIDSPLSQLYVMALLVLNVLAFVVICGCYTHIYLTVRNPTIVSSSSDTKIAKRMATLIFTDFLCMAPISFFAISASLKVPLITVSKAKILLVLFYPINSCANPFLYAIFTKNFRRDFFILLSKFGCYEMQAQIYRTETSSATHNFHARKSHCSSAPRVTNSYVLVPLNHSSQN
# Protocol: Example 25. Rat granulosa EC50 FSH (Assay B)
# The assay was performed pursuant to the teaching of Yanofsky et al. (2006) Allosteric activation of the follicle-stimulating hormone (FSH) receptor by selective, nonpeptide agonists (JBC 281(19): 13226-13233, which is incorporated by reference in the disclosure of the invention).
pEC50 [1],pEC50 [2],SMILES
7.00 to 8.00,< 6.30,"CCOC(=O)[C@@H]1C[C@@H]1c1cc2c(cc1OC)OCc1c(C(=O)N(C)C(C)(C)C)nn(-c3cc(Cl)cc(Cl)c3)c1-2 (racemic) [Compound 197, (1RS,2SR)-ethyl 2-(3-(tert-butyl(methyl)carbamoyl)-1-(3,5-dichlorophenyl)-7-methoxy-1,4-dihydrochromeno[4,3-c]pyrazol-8-yl)cyclopropanecarboxylate]"
7.00 to 8.00,,COc1cc2c(cc1[C@H]1C[C@@H]1C(=O)O)-c1c(c(C(=O)N(C)C(C)(C)C)nn1-c1cc(F)cc(F)c1)CO2 (racemic) [Compound 205]
> 8.00,6.30 to 7.00,COC(=O)[C@H]1C[C@@H]1c1cc2c(cc1OC)OCc1c(C(=O)N(C)C(C)(C)C)nn(-c3cc(F)cc(F)c3)c1-2 (racemic) [Compound 206]
6.30 to 7.00,,"COc1cc2c(cc1-c1cnn(CC(O)CO)c1)-c1c(c(C(=O)N(C)C(C)(C)C)nn1-c1cc(Cl)cc(Cl)c1)CO2 (single isomer, unassigned) [Compound 192, N-tert-butyl-1-(3,5-dichlorophenyl)-8-(1-(2,3-dihydroxypropyl)-1H-pyrazol-4-yl)-7-methoxy-N-methyl-1,4-dihydrochromeno[4,3-c]pyrazole-3-carboxamide]"
> 8.00,,"COc1cc2c(cc1-c1ccccn1)-c1c(c(C(=O)N3CCOCC3(C)C)nn1-c1cc(Cl)cc(Cl)c1)CO2 [Compound 11, (1-(3,5-dichlorophenyl)-7-methoxy-8-(pyridin-2-yl)-1,4-dihydrochromeno[4,3-c]pyrazol-3-yl)(3,3-dimethylmorpholino)methanone]"
7.00 to 8.00,,"COc1cc2c(cc1-c1ccn(C)n1)-c1c(c(C(=O)N3CCS(=O)(=O)CC3(C)C)nn1-c1cc(Cl)cc(Cl)c1)CO2 [Compound 13, 4-{[1-(3,5-dichlorophenyl)-7-methoxy-8-(1-methyl-1H-pyrazol-3-yl)-1H,4H-chromeno[4,3-c]pyrazol-3-yl]carbonyl}-3,3-dimethyl-1l{6},4-thiomorpholine-1,1-dione]"
> 8.00,,"COc1cc2c(cc1-c1cnoc1C)-c1c(c(C(=O)N(C)C(C)(C)C)nn1-c1cc(Cl)cc(Cl)c1)CO2 [Compound 15, N-tert-butyl-1-(3,5-dichlorophenyl)-7-methoxy-N-methyl-8-(5-methylisoxazol-4-yl)-1,4-dihydrochromeno[4,3-c]pyrazole-3-carboxamide]"
> 8.00,,"COc1cc(Cl)cc(-n2nc(C(=O)N(C)C(C)(C)C)c3c2-c2cc(-c4cncc(C#N)c4)c(OC)cc2OC3)c1 [Compound 35, N-tert-butyl-1-(3-chloro-5-methoxyphenyl)-8-(5-cyanopyridin-3-yl)-7-methoxy-N-methyl-1,4-dihydrochromeno[4,3-c]pyrazole-3-carboxamide]"
> 8.00,,"COc1cc(OC)cc(-n2nc(C(=O)N3CC[S+]([O-])CC3(C)C)c3c2-c2cc(-c4cncc(C)c4)c(OC)cc2OC3)c1 (centres unmarked) [Compound 45, (1-(3,5-dimethoxyphenyl)-7-methoxy-8-(5-methylpyridin-3-yl)-1,4-dihydrochromeno[4,3-c]pyrazol-3-yl)(S-oxo-3,3-dimethylthiomorpholino)methanone]"
7.00 to 8.00,,"COc1cc(OC)cc(-n2nc(C(=O)N3CCOCC3(C)C)c3c2-c2cc(-c4ccccn4)c(OC)cc2OC3)c1 [Compound 47, (1-(3,5-dimethoxyphenyl)-7-methoxy-8-(pyridin-2-yl)-1,4-dihydrochromeno[4,3-c]pyrazol-3-yl)(3,3-dimethylmorpholino)methanone]"
7.00 to 8.00,,"COc1cc(OC)cc(-n2nc(C(=O)N(CCO)C(C)(C)C)c3c2-c2cc(-c4ccn(C)n4)c(OC)cc2OC3)c1 [Compound 124, N-tert-butyl-1-(3,5-dimethoxyphenyl)-N-(2-hydroxyethyl)-7-methoxy-8-(1-methyl-1H-pyrazol-3-yl)-1,4-dihydrochromeno[4,3-c]pyrazole-3-carboxamide]"
7.00 to 8.00,,"COc1cc2c(cc1-c1ccn(C)n1)-c1c(c(C(=O)N3CCCC3(CO)CC(C)C)nn1-c1ccsc1)CO2 (centres unmarked) [Compound 126, (2-(hydroxymethyl)-2-isobutylpyrrolidin-1-yl)(7-methoxy-8-(1-methyl-1H-pyrazol-3-yl)-1-(thiophen-3-yl)-1,4-dihydrochromeno[4,3-c]pyrazole-3-yl)methanone]"
7.00 to 8.00,,"CCC1(COC)CCCN1C(=O)c1nn(-c2ccsc2)c2c1COc1cc(OC)c(-c3ccn(C)n3)cc1-2 (centres unmarked) [Compound 128, (2-ethyl-2-(methoxymethyl)pyrrolidin-1-yl)(7-methoxy-8-(1-methyl-1H-pyrazol-3-yl)-1-(thiophen-3-yl)-1,4-dihydrochromeno[4,3-c]pyrazol-3-yl)methanone]"
7.00 to 8.00,,"COc1cc2c(cc1-c1ccn(C)n1)-c1c(c(C(=O)N3CCC(S(C)(=O)=O)CC3(C)C)nn1-c1ccsc1)CO2 (centres unmarked) [Compound 129, (2,2-dimethyl-4-(methylsulfonyl)piperidin-1-yl)(7-methoxy-8-(1-methyl-1H-pyrazol-3-yl)-1-(thiophen-3-yl)-1,4-dihydrochromeno[4,3-c]pyrazol-3-yl)methanone]"
> 8.00,,"COc1cc2c(cc1CC(C)C)-c1c(c(C(=O)N(C)C(C)(C)C#N)nn1-c1ccsc1)CO2 [Compound 133, N-(2-cyanopropan-2-yl)-8-isobutyl-7-methoxy-N-methyl-1-(thiophen-3-yl)-1,4-dihydrochromeno[4,3-c]pyrazole-3-carboxamide]"
< 6.30,,"COc1cc(OC)cc(-n2nc(C(=O)N(C)C(C)(C)C)c3c2-c2cc(-c4nn(C)cc4C(N)=O)c(OC)cc2OC3)c1 [Compound 144, N-tert-butyl-8-(4-carbamoyl-1-methyl-1H-pyrazol-3-yl)-1-(3,5-dimethoxyphenyl)-7-methoxy-N-methyl-1,4-dihydrochromeno[4,3-c]pyrazole-3-carboxamide]"
7.00 to 8.00,,COc1cc2c(cc1-c1ccc(F)c(C(=O)O)c1)-c1c(c(C(=O)N(C)C(C)(C)C)nn1-c1cc(Cl)cc(Cl)c1)CO2 [Compound 180]
7.00 to 8.00,,"COc1cc2c(cc1C#CC(N)=O)-c1c(c(C(=O)N(C)C(C)(C)C)nn1-c1ccsc1)CO2 [Compound 186, 8-(3-amino-3-oxoprop-1-ynyl)-N-tert-butyl-7-methoxy-N-methyl-1-(thiophen-3-yl)-1,4-dihydrochromeno[4,3-c]pyrazole-3-carboxamide]"

# Source: US10941152B2, “Pyrazole compounds as modulators of FSHR and uses thereof” (TOCOPHERX, INC., priority 2014, dated 2021)
